#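 1) Cells in 96-well plates. 2) Compound, 48 h, 5 concentrations. 3) Linear interpolation between surrounding doses. 4) Unreached endpoint = highest concentration. The concentration for 50% growth inhibition is given as GI50. TGI denotes the concentration required for complete inhibition of growth.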
# Tests used:
# Test in all cases: DTP human tumour cell line panel, 48 h
# NCI-H226 lung = tested on: NCI-H226 lung
# OVCAR-4 ovarian = tested on: OVCAR-4 ovarian
# UACC-257 melanoma = tested on: UACC-257 melanoma
# SK-MEL-28 melanoma = tested on: SK-MEL-28 melanoma
# SNB-75 CNS = tested on: SNB-75 CNS
# M14 melanoma = tested on: M14 melanoma
# DU-145 prostate = tested on: DU-145 prostate
# SNB-19 CNS = tested on: SNB-19 CNS
# HS 578T breast = tested on: HS 578T breast
# NCI-H460 lung = tested on: NCI-H460 lung
# U251 CNS = tested on: U251 CNS
# SK-MEL-5 melanoma = tested on: SK-MEL-5 melanoma
# LOX IMVI melanoma = tested on: LOX IMVI melanoma
# A498 renal = tested on: A498 renal
# SF-268 CNS = tested on: SF-268 CNS
# HCT-116 colon = tested on: HCT-116 colon
# T-47D breast = tested on: T-47D breast
# TK-10 renal = tested on: TK-10 renal
# HOP-92 NSCLC = tested on: HOP-92 NSCLC
# MDA-MB-231 breast = tested on: MDA-MB-231 breast
# HL-60(TB) leukemia = tested on: HL-60(TB) leukemia
# A549 NSCLC = tested on: A549 NSCLC
# CCRF-CEM leukemia = tested on: CCRF-CEM leukemia
# COLO 205 colon = tested on: COLO 205 colon
# EKVX NSCLC = tested on: EKVX NSCLC
# ACHN renal = tested on: ACHN renal
# OVCAR-3 ovarian = tested on: OVCAR-3 ovarian
# HCT-15 colon = tested on: HCT-15 colon
# HT29 colon = tested on: HT29 colon
# SR leukemia = tested on: SR leukemia
# IGROV1 ovarian = tested on: IGROV1 ovarian
# MDA-MB-468 breast = tested on: MDA-MB-468 breast
# MALME-3M melanoma = tested on: MALME-3M melanoma
# NCI-H23 lung = tested on: NCI-H23 lung
# OVCAR-5 ovarian = tested on: OVCAR-5 ovarian
# HCC-2998 colon = tested on: HCC-2998 colon
# SN12C renal = tested on: SN12C renal
# UACC-62 melanoma = tested on: UACC-62 melanoma
# K-562 leukemia = tested on: K-562 leukemia
# 786-0 renal = tested on: 786-0 renal
# BT-549 breast = tested on: BT-549 breast
# SK-MEL-2 melanoma = tested on: SK-MEL-2 melanoma
# MOLT-4 leukemia = tested on: MOLT-4 leukemia
# RPMI-8226 leukemia = tested on: RPMI-8226 leukemia
# HOP-62 NSCLC = tested on: HOP-62 NSCLC
# SW-620 colon = tested on: SW-620 colon
# CAKI-1 renal = tested on: CAKI-1 renal
# UO-31 renal = tested on: UO-31 renal
# OVCAR-8 ovarian = tested on: OVCAR-8 ovarian
# PC-3 prostate = tested on: PC-3 prostate
# KM12 colon = tested on: KM12 colon
# MCF7 breast = tested on: MCF7 breast
# SF-295 CNS = tested on: SF-295 CNS
# MDA-MB-435 = tested on: MDA-MB-435
# SF-539 CNS = tested on: SF-539 CNS
# RXF 393 renal = tested on: RXF 393 renal
# NCI-H522 lung = tested on: NCI-H522 lung
# SK-OV-3 ovarian = tested on: SK-OV-3 ovarian
smiles,measurement,setting,value
CC(C)N=C([Se])NC(=O)c1cccs1,GI50,NCI-H226 lung,16.3 µM
same,TGI,NCI-H226 lung,35.3 µM
same,GI50,OVCAR-4 ovarian,16.8 µM
same,TGI,OVCAR-4 ovarian,36 µM
same,GI50,UACC-257 melanoma,15.5 µM
same,TGI,UACC-257 melanoma,29.8 µM
same,GI50,SK-MEL-28 melanoma,16.9 µM
same,TGI,SK-MEL-28 melanoma,35.1 µM
same,GI50,SNB-75 CNS,5.51 µM
same,TGI,SNB-75 CNS,21.3 µM
same,GI50,M14 melanoma,12.7 µM
same,TGI,M14 melanoma,26.6 µM
same,GI50,DU-145 prostate,19.3 µM
same,TGI,DU-145 prostate,40 µM
same,GI50,SNB-19 CNS,4.82 µM
same,TGI,SNB-19 CNS,20 µM
same,GI50,HS 578T breast,7.16 µM
same,TGI,HS 578T breast,32 µM
same,GI50,NCI-H460 lung,3.37 µM
same,TGI,NCI-H460 lung,19 µM
same,GI50,U251 CNS,7.84 µM
same,TGI,U251 CNS,21.5 µM
same,GI50,SK-MEL-5 melanoma,2.82 µM
same,TGI,SK-MEL-5 melanoma,14.3 µM
same,GI50,LOX IMVI melanoma,13.2 µM
same,TGI,LOX IMVI melanoma,27.2 µM
same,GI50,A498 renal,6.55 µM
same,TGI,A498 renal,59.2 µM
same,GI50,SF-268 CNS,19.9 µM
same,TGI,SF-268 CNS,57.1 µM
same,GI50,HCT-116 colon,4.78 µM
same,TGI,HCT-116 colon,18.4 µM
same,GI50,T-47D breast,19.4 µM
same,TGI,T-47D breast,48.8 µM
same,GI50,TK-10 renal,16 µM
same,TGI,TK-10 renal,29.5 µM
same,GI50,HOP-92 NSCLC,22.1 µM
same,TGI,HOP-92 NSCLC,51.6 µM
same,GI50,MDA-MB-231 breast,17.6 µM
same,TGI,MDA-MB-231 breast,36.1 µM
same,GI50,HL-60(TB) leukemia,20.3 µM
same,TGI,HL-60(TB) leukemia,55.6 µM
same,GI50,A549 NSCLC,4.3 µM
same,TGI,A549 NSCLC,33.1 µM
same,GI50,CCRF-CEM leukemia,17.4 µM
same,TGI,CCRF-CEM leukemia,50.6 µM
same,GI50,COLO 205 colon,16.8 µM
same,TGI,COLO 205 colon,31.7 µM
same,GI50,EKVX NSCLC,7.45 µM
same,TGI,EKVX NSCLC,20.8 µM
same,GI50,ACHN renal,18 µM
same,TGI,ACHN renal,37.4 µM
same,GI50,OVCAR-3 ovarian,14.9 µM
same,TGI,OVCAR-3 ovarian,28.6 µM
same,GI50,HCT-15 colon,18.4 µM
same,TGI,HCT-15 colon,37.5 µM
same,GI50,HT29 colon,18.4 µM
same,TGI,HT29 colon,46.6 µM
same,GI50,SR leukemia,12.6 µM
same,TGI,SR leukemia,49.9 µM
same,GI50,IGROV1 ovarian,8.04 µM
same,TGI,IGROV1 ovarian,21.1 µM
same,GI50,MDA-MB-468 breast,16.5 µM
same,TGI,MDA-MB-468 breast,34.6 µM
same,GI50,MALME-3M melanoma,17 µM
same,TGI,MALME-3M melanoma,33.2 µM
same,GI50,NCI-H23 lung,10.2 µM
same,TGI,NCI-H23 lung,23.8 µM
same,GI50,OVCAR-5 ovarian,16 µM
same,TGI,OVCAR-5 ovarian,31.4 µM
same,GI50,HCC-2998 colon,5.8 µM
same,TGI,HCC-2998 colon,18.4 µM
same,GI50,SN12C renal,10.9 µM
same,TGI,SN12C renal,23.9 µM
same,GI50,UACC-62 melanoma,14.1 µM
same,TGI,UACC-62 melanoma,28.7 µM
same,GI50,K-562 leukemia,28.4 µM
same,TGI,K-562 leukemia,87.1 µM
same,GI50,786-0 renal,17.7 µM
same,TGI,786-0 renal,31.9 µM
same,GI50,BT-549 breast,15.4 µM
same,TGI,BT-549 breast,31 µM
same,GI50,SK-MEL-2 melanoma,15.7 µM
same,TGI,SK-MEL-2 melanoma,34.5 µM
same,GI50,MOLT-4 leukemia,20.8 µM
same,TGI,MOLT-4 leukemia,58.1 µM
same,GI50,RPMI-8226 leukemia,19.9 µM
same,TGI,RPMI-8226 leukemia,56.4 µM
same,GI50,HOP-62 NSCLC,4.11 µM
same,TGI,HOP-62 NSCLC,19.1 µM
same,GI50,SW-620 colon,16.7 µM
same,TGI,SW-620 colon,33 µM
same,GI50,CAKI-1 renal,17 µM
same,TGI,CAKI-1 renal,32.6 µM
same,GI50,UO-31 renal,13.8 µM
same,TGI,UO-31 renal,26.7 µM
same,GI50,OVCAR-8 ovarian,15.6 µM
same,TGI,OVCAR-8 ovarian,29.5 µM
same,GI50,PC-3 prostate,4.06 µM
same,TGI,PC-3 prostate,16.6 µM
same,GI50,KM12 colon,12.1 µM
same,TGI,KM12 colon,26.2 µM
same,GI50,MCF7 breast,6.58 µM
same,TGI,MCF7 breast,35.2 µM
same,GI50,SF-295 CNS,2.18 µM
same,TGI,SF-295 CNS,6.77 µM
same,GI50,MDA-MB-435,16.3 µM
same,TGI,MDA-MB-435,33 µM
same,GI50,SF-539 CNS,13.2 µM
same,TGI,SF-539 CNS,26.1 µM
same,GI50,RXF 393 renal,12.2 µM
same,TGI,RXF 393 renal,24.8 µM
same,GI50,NCI-H522 lung,14.4 µM
same,TGI,NCI-H522 lung,28.1 µM
same,GI50,SK-OV-3 ovarian,16.2 µM
same,TGI,SK-OV-3 ovarian,30.5 µM
